One block for each compound: values may come before it.
Legend:
human AGS cells = experiment: Quantitative RT-PCR of FOXO target mRNAs in human AGS cells under ER stress; format: cell-based
Experimental: (§1) The expression of certain mRNAs was measured by quantitative reverse transcription polymerase chain reaction (RT-PCR). In this example, the mRNA was extracted and purified using RNeasy Mini Kit (Qiagen, Netherlands) with DNase to eliminate genomic DNA contamination. Reverse transcription to synthesize the first strand utilized oligo-dT primers. The mRNAs measured are known FOXO targets: […] (CHOP), Bim (anti- or pro-apoptotic regulators), Growth Arrest and DNA Damage gene (GADD45) and PERK. Bip2, which is not a FOXO target, was also measured as a control. Results were normalized to Kinesin mRNA.
Dimethyl sulfoxide (DMSO)-treated human AGS cells were used as a control, denoted as “ctrl”. The human AGS cells were grown in Roswell Park Memorial Institute (RPMI) media supplemented with 10% FBS, and treated with 10 μg/ml tunicamycin dissolved in DMSO at 1 mg/ml for 4 hours to induce ER stress. The tunicamycin treated cells are denoted as “TM”.
Quantitative RT-PCR was performed to show the relative level of the indicated human mRNA targets. The results are shown in FIG. 5A where normalized levels of mRNA transcripts were measured for the “TM” cells compared to the “ctrl” cells. […] It can be concluded that ER stress induces the expression of Bip2, CHOP, Bim and GADD45.
(§2) The tunicamycin treated (“TM”) cells were further treated with siRNA treatment to deplete PERK from human AGS cells. The siRNA sequence used was 5′-[…]-3′ (SEQ ID NO: 1). The siRNA was transfected into cells using HiPerFect reagent (Qiagen, Netherlands) for 3 days before tunicamycin treatment. The PERK-depleted cells are denoted as “PERK RNAi+TM”.
(§3) Quantitative RT-PCR was performed to show the relative level of the indicated human mRNA targets. The results are shown in FIG. 5B where normalized levels of the target mRNA transcripts were measured for the “TM” cells compared with the “PERK RNAi+TM” cells. The levels of these target mRNAs in PERK-depleted (“PERK RNAi+TM”) cells were normalized to the levels of tunicamycin-treated (“TM”) control cells.

PERK = experiment: siRNA depletion of PERK in human AGS cells, quantitative RT-PCR; format: cell-based; conditions: siRNA transfected 3 days before tunicamycin treatment
Experimental: as §1, §2, §3

MCF-7 cells = experiment: Expression of endogenous Foxo1 targets in serum starved, PI3K inhibited MCF-7 cells; format: cell-based, human; conditions: serum starved+LY+PERK inhibition vs serum starved+LY
Experimental: To test the effects of PERK inhibition on endogenous Foxo1 targets, the cells were serum starved to remove growth factors and treated with the PI3K inhibitor LY294002 (50 μM) to further reduce AKT activity (“serum starved+LY”) for 4 hours. This treatment can be viewed as a model for extreme insulin resistance, in that it removes the capacity of the cell to respond insulin signaling by activating AKT. Control cells were grown in DMEM supplemented with 10% FBS (“control with serum”). The endogenous human FOXO targets are BIM gene (a pro-apoptotic member of the BCL-2 protein family), Cyclin G2 gene (encoding a cyclin that blocks cell cycle entry), insulin receptor substrate 2 gene (IRS-2; encoding a cytoplasmic signaling molecule that mediates effects of insulin), p27KIP1 gene (encoding a cell cycle regulatory protein), pyruvate dehydrogenase lipoamide kinase isozyme 4 gene (PDK4; encoding a protein that inhibits the pyruvate dehydrogenase complex), phosphoenolpyruvate carboxykinase 2 (PCK2; encoding a mitochondrial enzyme), p21 gene (encoding a cyclin-dependent kinase inhibitor) and insulin receptor gene (INSR). The rp132 gene (a ribosomal protein gene) and the mActin gene (encoding a muscle-specific type actin) are not FOXO targets and were used as controls. […]

HEPG2 liver cells = experiment: Foxo1 target gene expression in palmitate treated (insulin resistant) HEPG2 liver cells; format: cell-based, human; conditions: palmitate treated cells further treated with PERK kinase inhibitor
Experimental: HEPG2 liver cells were treated with 0.75 mM of palmitate, a saturated fatty acid, for 17 hours to induce insulin resistance, and the effects of PERK inhibition were assessed by monitoring Foxo1 target gene expression. The Foxo1 target genes are pyruvate dehydrogenase lipoamide kinase isozyme 4 gene (PDK4; encoding a protein that inhibits the pyruvate dehydrogenase complex) and phosphoenolpyruvate carboxykinase 1 (PCK1; encoding […]).
The results are shown in FIG. 12A, where the data was normalized to Kinesin mRNA levels and to the level of the rp132 control mRNAs.
The palmitate treated cells were further treated by inhibiting PERK kinase inhibitor 5-Bromo-N4-2-pyridinyl-N2-[3-(1,2,3,6-tetrahydro-4-pyridinyl)-1H-indol-5-yl]-2,4-pyrimidinediamine.
The results are shown in FIG. 12B, where the data was normalized to Kinesin mRNA levels and to the level of the rp132 control mRNAs. It can be seen that PERK inhibition decreased the expression of the Foxo1 targets, PDK4 and PCK1.

HEPG2 hepatocyte cells = experiment: Expression of FOXO targets in serum starved, PI3K inhibited HEPG2 hepatocyte cells; format: cell-based, human; conditions: serum starved+LY+PERK inhibition vs serum starved+LY
Experimental: To test the effects of PERK inhibition on endogenous Foxo1 targets, the cells were serum starved to remove growth factors and treated with the PI3K inhibitor LY294002 (50 μM) to further reduce AKT activity (“serum starved+LY”) for 4 hours. This treatment can be viewed as a model for extreme insulin resistance, in that it removes the capacity of the cell to respond insulin signaling by activating AKT. Control cells were grown in DMEM supplemented with 10% FBS (“control with serum”). The endogenous human FOXO targets are BIM gene (a pro-apoptotic member of the BCL-2 protein family), Cyclin G2 gene (encoding a cyclin that blocks cell cycle entry), insulin receptor substrate 2 gene (IRS-2; encoding a cytoplasmic signaling molecule that mediates effects of insulin), p27KIP1 gene (encoding a cell cycle regulatory protein), pyruvate dehydrogenase lipoamide kinase isozyme 4 gene (PDK4; encoding a protein that inhibits the pyruvate dehydrogenase complex), phosphoenolpyruvate carboxykinase 2 (PCK2; encoding a mitochondrial enzyme), p21 gene (encoding a cyclin-dependent kinase inhibitor) and insulin receptor gene (INSR). The rp132 gene (a ribosomal protein gene) and the mActin gene (encoding a muscle-specific type actin) are not FOXO targets and were used as controls. […] Example 11A was repeated with HEPG2 hepatocyte cells instead.

human Foxo1 = experiment: Foxo1 luciferase reporter assay in human H1299 cells; format: cell-based; conditions: 1 μM
Experimental: Human H1299 cells were transfected to express human Foxo1 (“FOXO1”) and co-transfected to express PERK (“FOXO1+PERK”). The transfected H1299 cells were treated with 1 μM PERK kinase inhibitor (“FOXO1+inhibitor” and “FOXO1+PERK+inhibitor”). The PERK kinase inhibitor has the chemical formula: 5-Bromo-N4-2-pyridinyl-N2-[3-(1,2,3,6-tetrahydro-4-pyridinyl)-1H-indol-5-yl]-2,4-pyrimidinediamine. The activity of the Foxo1 luciferase reporter gene was then measured in terms of normalized IRS-luciferase levels.

human Foxo1 (human) = human Foxo1 (human) (UniProt Q12778); experiment: cell-based or functional assay
UniProt Q12778, sequence (Q12778 whole entry): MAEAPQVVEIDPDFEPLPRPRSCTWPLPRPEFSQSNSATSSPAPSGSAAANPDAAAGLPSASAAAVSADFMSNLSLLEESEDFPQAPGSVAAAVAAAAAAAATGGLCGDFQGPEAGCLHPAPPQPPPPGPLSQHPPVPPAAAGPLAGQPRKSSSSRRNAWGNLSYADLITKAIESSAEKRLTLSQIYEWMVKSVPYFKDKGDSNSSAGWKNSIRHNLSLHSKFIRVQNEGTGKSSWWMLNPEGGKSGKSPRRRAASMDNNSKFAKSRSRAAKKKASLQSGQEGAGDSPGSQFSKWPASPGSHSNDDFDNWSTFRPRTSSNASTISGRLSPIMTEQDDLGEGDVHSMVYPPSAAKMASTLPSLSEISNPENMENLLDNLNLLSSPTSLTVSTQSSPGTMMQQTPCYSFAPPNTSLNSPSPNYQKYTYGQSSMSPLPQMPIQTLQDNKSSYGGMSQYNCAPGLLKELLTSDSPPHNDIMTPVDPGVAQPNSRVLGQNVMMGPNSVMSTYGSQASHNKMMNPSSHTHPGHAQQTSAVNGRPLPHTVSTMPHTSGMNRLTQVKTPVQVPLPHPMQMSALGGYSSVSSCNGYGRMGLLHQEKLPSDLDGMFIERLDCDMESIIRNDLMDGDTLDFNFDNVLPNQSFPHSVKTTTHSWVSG

FOXO-GFP = FOXO-GFP subcellular localization assay in Drosophila S2 cells; format: cell-based; conditions: 10 μg/ml of insulin for 30 min, serum free medium
Experimental: A FOXO-green fluorescent (GFP) fusion protein was expressed in Drosophila S2 cells by transient transfection. The Drosophila cells were grown in serum free medium and deprived of insulin. The transfected cells were treated with 10 μg/ml of insulin for 30 min and the subcellular localization of FOXO-GFP was scored by obtaining images of the FOXO-GFP expressing cells. The insulin treated cells were named sample (b). A control sample (a) was obtained by having no insulin treatment to the transfected cells. In sample (c), ER stress was induced by RNA interference (RNAi) to disrupt endoplasmic-reticulum-associated-protein degradation (ERAD) machinery. The disruption of ERAD machinery was done by treatment of dsRNA to deplete HMG-CoA reductase degradation protein 3 (Hrd3), thereby inducing ER stress. Thereafter, the cells were treated with insulin 4 days after the dsRNA treatment. In sample (d), ER stress was induced by dsRNA treatment to deplete Hrd3. PERK protein was also depleted using dsRNA treatment. Thereafter, the cells were treated with insulin 4 days after the dsRNA treatment.
The results are shown in FIG. 2, where N means predominantly nuclear, C means predominantly cytoplasmic and CN means both nuclear and cytoplasmic. […]

[1] = PERK RNAi+TM cells compared with TM cells

Compound: 5′-CAAACUGUAUAACGGUUUATT-3′ [PERK RNAi]
- degree of induction of Foxo1 targets CHOP, Bim and GADD45 (human AGS cells; [1]): reducing the degree of induction
- levels of Bip2 transcripts (not a FOXO target) (human AGS cells; [1]): comparable
- decrease of PERK levels compared to TM cells (PERK): more than 80%

Compound: Brc1cnc(Nc2ccc3[nH]cc(C4=CCNCC4)c3c2)nc1Nc1ccccn1 [PERK kinase inhibitor, 5-Bromo-N4-2-pyridinyl-N2-[3-(1,2,3,6-tetrahydro-4-pyridinyl)-1H-indol-5-yl]-2,4-pyrimidinediamine]
- target genes expression (BIM, Cyclin G2, IRS-2, p27KIP1, PDK4) (MCF-7 cells): reducing the target genes expression
- expression of the Foxo1 targets PDK4 and PCK1 (HEPG2 liver cells): decreased
- levels of rp123 and mActin (not Foxo1 targets) (HEPG2 liver cells): not substantially altered
- expression of rp132 and mActin (not FOXO target genes) (HEPG2 hepatocyte cells): did not reduce
- target genes expression (p27, PDK, Cyclin G, PCK2, p21, INSR) (HEPG2 hepatocyte cells): reduced the target genes expression
- level of Foxo1 activity with co-expressed PERK (normalized IRS-luciferase levels) (human Foxo1; FOXO1+PERK vs FOXO1+PERK+inhibitor): reduced the level of Foxo1 activity
- activity of Foxo1 alone (normalized IRS-luciferase levels) (human Foxo1; FOXO1 vs FOXO1+inhibitor): did not affect

- normalized luciferase levels of the human Foxo1 luciferase reporter (human Foxo1 (human)): 2 fold
Compound: human protein kinase RNA-like endoplasmic reticulum kinase (PERK) protein (from UniProt Q9NZJ5 30-1116) (enzyme)

Compound: insulin
- location of FOXO-GFP both nuclear and cytoplasmic (FOXO-GFP): about 30 % of cells
- location of FOXO-GFP cytoplasmic (FOXO-GFP): about 70 % of cells

Compound: tunicamycin [TM, reference compound]
- levels of Bip2, CHOP, Bim and GADD45 mRNA transcripts compared to ctrl cells (human AGS cells; 10 μg/ml tunicamycin for 4 hours, normalized to Kinesin mRNA): significantly higher
